US9777034B2, “Modular synthesis of amphiphilic Janus glycodendrimers and their self-assembly into glycodendrimersomes” (The Trustees of The University of Pennsylvania, priority 2013, dated 2017)
“Also recorded” adds a separate entry of the source.

Columns and labels:
[1] = Cryo-TEM of assemblies formed in water; assay type: physicochemical
[2] = Micropipette aspiration of giant glycodendrimersomes; conditions: for elastic modulus of membrane: average of 11 (52dd) or 13 (51bc) vesicles; for critical area strain: giant vesicles; for behaviour in micropipette aspiration: giant vesicles prepared by hydration
[3] = Self-assembly by injection of THF or ethanol solution into water or buffer, analysed by DLS (size, polydispersity, stability in time); conditions: for stability of glycodendrimersomes in buffer: PBS and HEPES buffers
Method: The resulting assemblies were first analyzed by dynamic light scattering (DLS) for size, polydispersity (PDI), and stability in time. Assemblies stable in time were subsequently analyzed by cryogenic-transmission electron microscopy (cryo-TEM) to determine their structure.
Dynamic light scattering (DLS) was performed with a Malvern Instruments particle sizer (Zetasizer® Nano S, Malvern Instruments, UK) equipped with 4 mW He—Ne laser 633 nm and avalanche photodiode positioned at 175° to the beam and temperature controlled cuvette holder. Instrument parameters were determined automatically along with measurement times. Experiments were performed in triplicate. The Janus-dendrimer (1 mg) dissolved in 100 μL of THF was injected into 2 mL of ultrapure water or buffer followed by 5 seconds of vortex mixing. DLS experiments were measured at 25° C. Different final concentration of dendrimersomes in water was prepared from varying the starting concentration of THF solution with the same injection volume (100 μL) into constant 2.0 mL of ultrapure water or buffer.

galectin-3 (Gal-3) = biological target: T1, galectin-3 (Gal-3) (Homo sapiens, UniProt P17931); experiment: Agglutination of glycodendrimersomes with Gal-3; assay type: binding; conditions: [52bd]=1.0 mg/mL, [Gal-3]=0-4.0 mg/mL, 10 mM HEPES
T1 construct: made in house
T1 sequence (P17931 whole entry): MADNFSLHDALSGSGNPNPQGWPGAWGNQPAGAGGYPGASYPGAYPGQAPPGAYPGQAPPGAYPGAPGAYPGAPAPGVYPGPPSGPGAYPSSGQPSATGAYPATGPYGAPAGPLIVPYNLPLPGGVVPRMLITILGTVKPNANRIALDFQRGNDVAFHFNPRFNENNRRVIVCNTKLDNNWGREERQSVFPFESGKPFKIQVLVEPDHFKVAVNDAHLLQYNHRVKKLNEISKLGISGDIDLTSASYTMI

[4] = tested on: Viscum album L. agglutinin (VAA)
galectin-4 (Gal-4) = biological target: T2, galectin-4 (Gal-4) (Homo sapiens, UniProt P56470); experiment: Agglutination of glycodendrimersomes with Gal-4; assay type: binding; conditions: [52bd]=1.0 mg/mL, [Gal-4]=0-4.0 mg/mL, 10 mM HEPES
T2 construct: made in house
T2 sequence (P56470 1-323): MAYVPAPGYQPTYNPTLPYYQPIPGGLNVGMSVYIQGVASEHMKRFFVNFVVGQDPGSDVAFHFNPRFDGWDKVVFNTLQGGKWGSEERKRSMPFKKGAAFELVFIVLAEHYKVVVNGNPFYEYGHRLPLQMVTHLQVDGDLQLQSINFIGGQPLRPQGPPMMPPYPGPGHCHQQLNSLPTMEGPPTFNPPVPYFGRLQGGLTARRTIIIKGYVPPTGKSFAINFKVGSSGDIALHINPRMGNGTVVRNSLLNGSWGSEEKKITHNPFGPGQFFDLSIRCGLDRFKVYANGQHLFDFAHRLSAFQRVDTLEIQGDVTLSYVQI

PA-IL = biological target: T3, PA-IL (Pseudomonas aeruginosa, UniProt Q05097); experiment: Agglutination of glycodendrimersomes with PA-IL; assay type: binding; conditions: 10 mM HEPES, 1.0 mM MnCl2 and CaCl2
T3 construct: purchased Sigma-Aldrich
T3 sequence (Q05097 whole entry): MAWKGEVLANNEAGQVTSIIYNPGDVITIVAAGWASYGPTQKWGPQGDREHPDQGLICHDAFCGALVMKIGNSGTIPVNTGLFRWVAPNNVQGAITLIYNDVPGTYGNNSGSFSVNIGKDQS

Substance	structure of assemblies formed in water ([1]; injection into water, cryo-TEM)	further results
(3,4)12G1-PE-TRZi-3EOMan2 [Compound 51ab]	solid vesicles	
(3,4,5)2Et8G1-PE-TRZi-Man2 [Compound 49ca]	mixtures of soft glycodendrimersomes and dendrimer aggregates; also recorded: formation of dendrimer aggregates is dominant with only few glycodendrimersomes being observed	
(3,4)2Ethyl8G1-PE-TRZ-(galactose)2 [Compound 48aa]	dendrimer aggregates	
((3,4)12G-PE-TRZ-(galactose)2 [Compound 46aa]	sheet-like solid lamellae	
(3,4,5)12G1-PE-TRZi-1EOMan2 [Compound 51cd]	solid lamellae	
(3,5)12G1-PE-TRZi-2EOMan2 [Compound 51bc]	soft vesicles	elastic modulus of membrane [2]: 163±30 dyne/cm; critical area strain [2]: 5-10%; behaviour in micropipette aspiration [2]: fluid unilamellar membrane
(3,4)12G1-PE-TRZi-3EOGal2 [Compound 51aa]	solid lamellae	
(3,5)12G1-PE-spacer-TRZ-(galactose)2 [Compound 50ba]	dendrimer aggregates	
(3,4,5)12G1-PE-TRZi-3EOGal2 [Compound 51ca]	solid lamellae	
(3,4,5)12G1-PE-spacer-TRZ-(galactose)2 [Compound 50ca]	mixture of tubular and spherical glycodendrimersomes; also recorded: mixtures of tubular and soft spherical glycodendrimersomes and also bundles of tubular dendrimersomes	
(3,4,5)12G1-PE-TRZi-3EOLac2 [Compound 53ca]	solid and polygonal glycodendrimersomes; also recorded: solid vesicles and solid lamellae	
(3,4,5)12G1-PE-spacer-TRZ-(1EO-lactose)2 [Compound 52dc]	glycodendrimersomes	
(3,4)12G1-PE-TRZi-Man2 [Compound 47ab]	solid glycodendrimersomes	
(3,5)2Et8G1-PE-TRZi-3EOGal2 [Compound 49bb]	only soft glycodendrimersomes	precipitation ([3]; 10 mg/mL final concentration in water): does not exhibit any sign of precipitation; stability of glycodendrimersomes in buffer [3]: stable in buffer; average vesicle size ([3]; concentration above 10 mg/mL): of the order of a micrometer; stability of vesicles in water and buffer ([3]; concentrations higher than 10 mg/mL): stable in water and buffer
(3,4)2Et8G1-PE-TRZi-Man2 [Compound 49aa]	only soft glycodendrimersomes	
(3,4)2Et8G1-PE-TRZi-3EOLac2 [Compound 53da]	glycodendrimersomes and solid lamellae; also recorded: soft glycodendrimersomes	
(3,4,5)12G1-PE-TRZ-(mannose)2 [Compound 46cb]	mixture of morphologies	structure of assemblies formed in water ([1]; concentrations higher than 0.5 mg/mL): polygonal glycodendrimersome; structure of assemblies formed in water ([1]; concentrations smaller than 0.5 mg/mL): nano-tubular morphology is dominant
(3,5)2Et8G1-PE-TRZi-Man2 [Compound 49ba]	mixtures of soft glycodendrimersomes and dendrimer aggregates; also recorded: coexistence of thick-wall glycodendrimersomes and large dendrimer aggregates	
(3,4)2Et8G1-PE-TRZi-3EOGal2 [Compound 49ab]	only soft glycodendrimersomes	stability of glycodendrimersomes in buffer [3]: stable in buffer
(3,4)2Et8G1-PE-TRZ1-Gal2 [Compound 49ac]	only soft glycodendrimersomes	
(3,5)12G1-PE-TRZ-4EOLac2 [Compound 52bd]	glycodendrimersomes	stability of glycodendrimersomes in buffer [3]: stable in buffer; agglutination with Gal-3 (galectin-3 (Gal-3)): agglutination; agglutination with VAA [4]: agglutination effect can be clearly visualized; agglutination with Gal-4 (galectin-4 (Gal-4)): agglutination
(3,4,5)2Et8G1-PE-TRZi-3EOLac2 [Compound 53fa]	soft glycodendrimersomes	stability of glycodendrimersomes in buffer [3]: stable in buffer

Substance	structure of assemblies formed in water ([1]; injection into water, cryo-TEM)	further results
(3,5)12G1-PE-TRZi-3EOMan2 [Compound 51bb]	soft vesicles	behaviour in micropipette aspiration [2]: fluid unilamellar membrane; agglutination with Con A, dependence on glycodendrimersome diameter (concanavalin A (Con A)): smallest glycodendrimersome provides the fastest agglutination; stability of glycodendrimersomes in buffer [3]: stable in buffer
(3,5)12G1-PE-spacer-TRZ-(mannose)2 [Compound 50bb]	dendrimer aggregates	
(3,4)12G1-PE-TRZ-1EOMan2 [Compound 51ad]	solid vesicles	behaviour in micropipette aspiration [2]: cannot be aspirated
(3,4,5)12G1-PE-TRZ-(galactose)2 [Compound 46ca]	solid lamellae	
(3,4,5)12G1-PE-spacer-TRZ-(mannose)2 [Compound 50cb]	tubular glycodendrimersome bundles; also recorded: mixtures of tubular and soft spherical glycodendrimersomes and also bundles of tubular dendrimersomes	
(3,5)12G1-PE-TRZi-3EOLac2 [Compound 53ba]	soft glycodendrimersomes	stability of glycodendrimersomes in buffer [3]: stable in buffer
(3,4)12G1-PE-TRZi-3EOLac2 [Compound 53aa]	combination of soft glycodendrimersomes and rod-like micelles	
(3,4)12G1-PE-TRZ-4EOLac2 [Compound 52ad]	mixture of soft vesicles and bundles of rod-like micelles	
(3,4,5)12G1-PE-spacer-TRZ-(4EO-lactose)2 [Compound 52dd]	glycodendrimersomes	elastic modulus of membrane [2]: 49.6±15 dyne/cm; critical area strain [2]: greater than 20%; behaviour in micropipette aspiration [2]: fluid unilamellar membrane; also recorded: display hysteresis; stability of glycodendrimersomes in buffer [3]: stable in buffer
(3,4)2Ethyl8G1-PE-TRZ-(mannose)2 [Compound 48ab]	dendrimer aggregates	
(3,5)12G1-PE-TRZi-1EOMan2 [Compound 51bd]	cubosomes	symmetry of glycodendrimercubosome ([1]; 1.0 mg/mL, Fourier transform of cryo-TEM): Pn3m cubic symmetry
(3,4,5)2Et8G1-PE-TRZi-3EOGal2 [Compound 49cb]	only soft glycodendrimersomes	stability of glycodendrimersomes in buffer [3]: stable in buffer
(3,5)12G1-PE-TRZi-3EOGal2 [Compound 51ba]	soft vesicles	agglutination with PA-IL (PA-IL): agglutination; also recorded: agglutinated; stability of glycodendrimersomes in buffer [3]: stable in buffer; agglutination with VAA [4]: agglutinated
(3,4,5)2Et8G1-PE-TRZi-Gal2 [Compound 49cc]	dendrimer aggregates	
(3,5)2Et8G1-PE-TRZi-3EOLac2 [Compound 53ea]	soft glycodendrimersomes	stability of glycodendrimersomes in buffer [3]: stable in buffer
(3,4)12G1-PE-TRZ-(mannose)2 [Compound 46ab]	sheet-like solid lamellae	
(3,4)12G1-PE-spacer-TRZ-(galactose)2 [Compound 50aa]	solid lamellae and solid vesicles	behaviour in micropipette aspiration [2]: cannot be aspirated
(3,4)12G1-PE-TRZi-2EOMan2 [Compound 51ac]	solid vesicles	
(3,4,5)12G1-PE-TRZi-3EOMan2 [Compound 51cb]	solid lamellae	morphological change on annealing ([1]; 0.5 mg/mL in water, annealing at 60° C. for 30 min): transition from solid lamellae to solid vesicles
(3,4)12G1-PE-spacer-TRZ-(mannose)2 [Compound 50ab]	solid lamellae and solid vesicles	
(3,5)2Et8G1-PE-TRZi-Gal2 [Compound 49bc]	mixtures of dendrimer aggregates and cubosomes	
(3,4,5)12G1-PE-TRZi-2EOMan2 [Compound 51cc]	solid lamellae	
